# In patent publication US4559344A, “Pyridine-pyrimidinone derivatives, a process for their production and H -antagonist medicament containing these compounds” (Ludwig Heumann & Co. GmbH, priority 1983, dated 1985):
# What was measured:
# histamine-H2-receptors = molecular target: T1, histamine-H2-receptors (Cavia porcellus, UniProt P47747); experiment: pA2 determination of H2-antagonistic activity in vitro on the isolated atrium of guinea pigs; settings: isolated guinea pig atrium
# T1 construct: in vitro on the isolated atrium of guinea pigs; from tissue; host or cells: isolated guinea pig atrium
# From the text: A recognized method of measuring H2 -antagonistic activity is based on determination of the pA2 -values in vitro on the isolated atrium of guinea pigs (cf. Ariens, Molecular Pharmacology, Vol. 1, Academic Press, New York, 1964).
# [1] = background statement; cited from earlier work
# T1 sequence (P47747 whole entry): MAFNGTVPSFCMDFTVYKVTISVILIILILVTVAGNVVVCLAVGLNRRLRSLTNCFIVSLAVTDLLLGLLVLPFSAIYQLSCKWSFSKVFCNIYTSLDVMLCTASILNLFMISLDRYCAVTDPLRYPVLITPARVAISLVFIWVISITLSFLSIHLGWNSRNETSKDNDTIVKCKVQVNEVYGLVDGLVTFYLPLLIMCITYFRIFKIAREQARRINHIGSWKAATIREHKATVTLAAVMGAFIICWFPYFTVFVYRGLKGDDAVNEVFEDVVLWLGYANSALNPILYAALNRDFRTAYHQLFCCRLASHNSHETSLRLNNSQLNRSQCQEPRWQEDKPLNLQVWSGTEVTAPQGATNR
Structure (SMILES),Kb (histamine-H2-receptors) [nM],half life [1]
"Cc1ccc(Cc2cnc(CCCCOc3cccc(CN4CCCCC4)c3)[nH]c2=O)cn1 [Example 1, 5-(6-methylpyrid-3-ylmethyl)-2-[4-[3-(1-piperidylmethyl)-phenoxy]-butyl]-pyrimidin-4-one]",21.9,–
"CN/C(=N/CCSCc1nc[nH]c1C)NC#N [Cimetidine, cimetidine]",–,relatively short half life
